Earlier results, collected in patent publication US7455864B2, “Melatonin-based composition for improved sleep” (Iomedix Development International Srl, priority 2007, dated 2008).

Columns and labels:
humans [1] = details: transdermal absorption
humans [2] = details: melatonin supplementation in humans
humans [3] = details: melatonin supplementation in humans; remark: listed apart in the source

| SMILES | blood pressure (humans [1]) | skin temperature (humans [1]) | treatment of jet lag (humans [2]) | onset of sleep (humans [3]) |
| --- | --- | --- | --- | --- |
| C=CC(C)(O)CCC=C(C)C (stereo not shown) [linalool] | reduce | reduce | – | – |
| COc1ccc2[nH]cc(CCNC(C)=O)c2c1 [Melatonin] | – | – | efficacious for treating jet lag | hastening the onset of sleep |
